Laboratory results from paper PMC8603191, “Fragment-based design of selective GPCR ligands guided by free energy simulations” (Chemical communications (Cambridge, England), 2021).
Values joined by “and” are separate entries in the source; they are usually repeats but may differ in a detail not shown here. Identical values can stand only once. “Also recorded” adds a separate entry of the source.

How the values were obtained:
hA1AR [1] = assay: Ki values of known ligands downloaded from the ChEMBL database; type: binding, human; details: from ChEMBL Ki values hA1AR and hA2AAR
Description: Table S5. Highest affinity human A1AR ligands (with < 20 HA) in the ChEMBL database compared to compound 22.a […]
a Known A1AR and A2AAR ligands with determined Ki values were downloaded from the ChEMBL database.
Compounds with motifs found in pan-assay interference compounds16 were excluded using OpenEye Toolkits 2020.2.0 OpenEye Scientific Software, Santa Fe, NM. http://www.eyesopen.com.

hA1AR [2] = target: hA1AR; parameters: method as in ChEMBL database; details: ligands with < 20 HA; ref ChEMBL database; cited from earlier work
hA2AAR = target: hA2AAR; parameters: method as in ChEMBL database; details: ligands with < 20 HA; ref ChEMBL database; cited from earlier work
human A2AAR [3] = target: T1, human A2AAR (Homo sapiens, UniProt P29274); assay: Radioligand binding assay, displacement of [3H]ZM241385; details: for Free energy of binding (ΔG) A2AAR: calculated from experimental binding affinities; for ΔΔG Experimental A2AAR: based on Table S3
T1 construct: expressed in transfected cells; host or cells: HEK293 (membrane preparations)
T1 sequence (P29274 whole entry): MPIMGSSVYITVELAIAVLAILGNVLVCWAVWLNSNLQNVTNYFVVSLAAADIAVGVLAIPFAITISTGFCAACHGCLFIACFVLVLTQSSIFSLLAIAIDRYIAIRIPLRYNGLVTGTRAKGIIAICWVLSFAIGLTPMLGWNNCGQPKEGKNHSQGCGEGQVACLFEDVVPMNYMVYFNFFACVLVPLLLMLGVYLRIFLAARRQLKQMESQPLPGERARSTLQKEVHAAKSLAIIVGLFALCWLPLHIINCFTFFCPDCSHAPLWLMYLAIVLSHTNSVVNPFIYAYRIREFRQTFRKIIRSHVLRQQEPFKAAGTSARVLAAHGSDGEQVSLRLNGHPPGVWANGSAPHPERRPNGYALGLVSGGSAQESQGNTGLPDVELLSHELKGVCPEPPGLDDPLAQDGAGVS
Procedure: (§1) Radioligand binding assays. HEK293 cells expressing the human A1- or A2AARs were cultured in DMEM supplemented with 10% fetal bovine serum, 100 Units/ml penicillin, 100 µg/ml streptomycin, and 2 µmol/ml glutamine. Cells were detached from plates by scraping into cold PBS and centrifuged at 250 g for 5 min. The pellets were resuspended in ice-cold Tris HCl buffer (50 mM, pH 7.4) and then homogenized. After homogenization and suspension, cells were centrifuged at 1000 g for 10 min, and the pellet was discarded.
(§2) The suspension was then re-centrifuged at 20,000 g for 60 min at 4 °C. The pellets were resuspended in buffer containing 3 Units/ml adenosine deaminase and incubated at 37°C for 30 min. The aliquots of membrane preparations were stored at −80°C until the binding experiments. For displacement binding assays, membrane preparations (20 µg proteins/tube) were incubated at 25°C for 60 min with a final concentration of [3H]DPCPX (0.5 nM) and [3H]ZM241385 (1.0 nM) for A1- and A2AARs, respectively, in a mixture containing 50 µL of increasing concentrations of a test ligand in a total assay volume of 200 µL of 50 mM Tris HCl, pH 7.4, containing 10 mM MgCl2. Nonspecific binding was determined using 100 µM of XAC. The reaction was terminated by filtration with GF/B filters using a Brandel 24-channel harvester. Filters were placed in scintillation vials containing 5 ml of Hydrofluor scintillation buffer and counted using a PerkinElmer Tricarb 2810TR liquid scintillation counter. […]
(§3) Table S1. Binding affinities of compounds 1-10 based on displacement of [3H]DPCPX and [3H]ZM241385 at the A1AR and A2AAR, respectively.
(§4) Compound Substituent A1AR A2AAR index […]
(§5) a Ki values are expressed as means ± SEM from (2-4) independent experiments. b Free energy of binding (ΔG) calculated from experimental binding affinities (kcal/mol) / Number of heavy atoms (HA). The ligand efficiency (LE) = −ΔG/HA. c Values from Matricon et al.8
(§6) Table S3. Binding affinities of compounds 11-26 based on displacement of [3H]DPCPX and […]
(§7) a K values are expressed as means ± SEM from (2-4) independent experiments.
(§8) Free energy of binding (ΔG) calculated from experimental binding affinities (kcal/mol) / Number of heavy

human A1AR [4] = target: T2, human A1AR (Homo sapiens, UniProt P30542); assay: Radioligand binding assay, displacement of [3H]DPCPX; details: for Free energy of binding (ΔG) A1AR: calculated from experimental binding affinities; for ΔΔG Experimental A1AR: based on Table S3
T2 construct: expressed in transfected cells; host or cells: HEK293 (membrane preparations)
T2 sequence (P30542 1-326): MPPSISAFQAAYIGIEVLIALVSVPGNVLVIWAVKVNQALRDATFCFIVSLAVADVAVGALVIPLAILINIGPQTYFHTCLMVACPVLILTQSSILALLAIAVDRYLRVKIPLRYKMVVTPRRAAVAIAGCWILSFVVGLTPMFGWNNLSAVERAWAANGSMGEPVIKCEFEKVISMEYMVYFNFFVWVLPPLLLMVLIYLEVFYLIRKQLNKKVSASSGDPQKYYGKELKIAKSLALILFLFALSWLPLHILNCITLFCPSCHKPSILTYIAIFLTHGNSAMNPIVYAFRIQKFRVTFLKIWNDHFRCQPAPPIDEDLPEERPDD
Procedure: as §1, §2, §3, §4, §5, §6, §7, §8

human A1AR [5] = assay: as above; details: A1AR versus A2AAR; for A1AR selectivity index: from Ki values; for selectivity for the A1AR: Fig. 1
Procedure: as §1, §2, §3, §4, §5, §6, §7, §8

human A1AR [6] = target: T2, human A1AR; assay: cAMP functional assay; type: cell-based; details: HEK293 cells, intracellular cAMP, n=3
Procedure: (§9) Functional assays measuring intracellular concentrations of cAMP were performed at the human A1AR and A2AAR to determine the efficacy of compounds 22 and 26. […]
cAMP assay. HEK293 cells were grown in DMEM supplemented with 10% fetal bovine serum, 100 Units/ml penicillin, 100 µg/ml streptomycin, and 2 µmol/ml glutamine. After 24 hours, cells were treated with assay buffer containing rolipram (10 µM), PSB603 (1 µM) and adenosine deaminase (3 units/ml) for 30 min followed by the addition of antagonists for 20 min and subsequent addition of agonists and incubated for another 20 min. For the A1AR assay, after incubation with agonist for 20 min, forskolin (10 µM) was added and incubated for an additional 15 min. The reaction was terminated upon removal of the supernatant, and addition of 100 µl Tween-20 (0.3%). Intracellular cAMP levels […]
(§10) were measured with an ALPHAScreen cAMP assay kit following the instructions from the manufacturer (PerkinElmer).

human A2AAR [7] = target: T1, human A2AAR; assay: cAMP functional assay; type: cell-based; details: HEK293 cells, intracellular cAMP, n=3
Procedure: as §9
cAMP assay. HEK293 cells were grown in DMEM supplemented with 10% fetal bovine serum, 100 Units/ml penicillin, 100 µg/ml streptomycin, and 2 µmol/ml glutamine. After 24 hours, cells were treated with assay buffer containing rolipram (10 µM), PSB603 (1 […]
The reaction was terminated upon removal of the supernatant, and addition of 100 µl Tween-20 (0.3%). Intracellular cAMP levels […]
as §10

[8] = displacement of [3H]ZM241385, means ± SEM from 2-4 independent experiments
[9] = displacement of [3H]DPCPX, means ± SEM from 2-4 independent experiments
[10] = radioligand binding, Fig. 1, Table S5

| SMILES | A1AR selectivity (hA1AR [1]) | Ki (hA1AR [2]) | Ki (hA2AAR) | Free energy of binding (ΔG) A2AAR (human A2AAR [3]) | Ki (human A2AAR [3]; [8]) | Free energy of binding (ΔG) A1AR (human A1AR [4]) | Ki (human A1AR [4]; [9]) | A1AR selectivity index (human A1AR [5]) | ΔΔG Experimental A2AAR (human A2AAR [3]; reference compound 9) | ΔΔG Experimental A1AR (human A1AR [4]; reference compound 9) | other results |
| --- | --- | --- | --- | --- | --- | --- | --- | --- | --- | --- | --- |
| Cc1nc(N)c2nc(-n3nccn3)n(C)c2n1 [CHEMBL194290] | 6.8 | 10.4 nM | 70.4 nM | – | – | – | – | – | – | – | – |
| Cn1c(-n2nccn2)nc2c(N)ncnc21 [CHEMBL194728] | 115.7 | 0.4 nM | 46.3 nM | – | – | – | – | – | – | – | – |
| Nc1nc2ccccc2n2nc(-c3ccco3)nc12 [CHEMBL261345] | 2.0 | 5.6 nM | 11.2 nM | – | – | – | – | – | – | – | – |
| Oc1nc2ccccc2n2nc(-c3cccs3)nc12 [CHEMBL328437] | – | 2 nM | – | – | – | – | – | – | – | – | – |
| Cn1ncc2nc(N)n3nc(-c4ccco4)nc3c21 [CHEMBL1935752] | 0.4 | 10 nM | 3.6 nM | – | – | – | – | – | – | – | – |
| COc1cccc2sc(NC(=O)C(C)(C)C)nc12 [Compound 19] | – | – | – | -9.2 kcal/mol | 199 ± 70 nM | -9.4 kcal/mol | 133 ± 10 nM | 1.5 | – | – | ΔΔG Experimental A2AAR (human A2AAR [3]; reference compound 5): –1.2 ± 0.2 kcal/mol; ΔΔG Experimental A1AR (human A1AR [4]; reference compound 5): –0.5 ± 0.1 kcal/mol |
| CC1(C(=O)Nc2nc3ccccc3s2)CCCC1 [Compound 20] | – | – | – | -8.6 kcal/mol | 572 ± 64 nM | -9.6 kcal/mol | – | – | –0.6 ± 0.1 kcal/mol | –1.1 ± 0.1 kcal/mol | Ki (human A1AR [4]; [10]): 95 nM; selectivity for the A1AR (human A1AR [5]): 6 fold |
| CC1(C(=O)Nc2nc3cc(Cl)ccc3s2)CCCC1 [Compound 21] | – | – | – | -9.1 kcal/mol | 252 ± 89 nM | -10.5 kcal/mol | 23 ± 6 nM | 11.0 | –1.1 ± 0.2 kcal/mol | –2.0 ± 0.2 kcal/mol | – |
| CC1(C(=O)Nc2nc3cc(Br)ccc3s2)CCCC1 [Compound 22] | – | – | – | -8.8 kcal/mol | 384 ± 82 nM | -11.0 kcal/mol | – | 38.4 | –0.8 ± 0.1 kcal/mol | –2.4 ± 0.1 kcal/mol | efficacy in cAMP assay at A1AR (human A1AR [6]): antagonists; also recorded: Antagonism; efficacy in cAMP assay at A2AAR (human A2AAR [7]): antagonists; also recorded: Antagonism; improvement of A1AR affinity (human A1AR [4]; compared to compound 1): > 1000 fold; Ki (human A1AR [4]; [10]): 10 nM; selectivity for the A1AR (human A1AR [5]): 38 fold |
| Cc1ccc2sc(NC(=O)C3(C)CCCC3)nc2c1 [Compound 23] | – | – | – | -8.6 kcal/mol | 561 ± 109 nM | -9.9 kcal/mol | 57 ± 15 nM | 9.8 | –0.6 ± 0.1 kcal/mol | –1.4 ± 0.2 kcal/mol | – |
| CCc1ccc2sc(NC(=O)C3(C)CCCC3)nc2c1 [Compound 24] | – | – | – | -7.8 kcal/mol | 2150 ± 90 nM | -9.6 kcal/mol | 96 ± 13 nM | 22.4 | 0.2 ± 0.1 kcal/mol | –1.1 ± 0.1 kcal/mol | – |
| CC1(C(=O)Nc2nc3cc(C#N)ccc3s2)CCCC1 [Compound 25] | – | – | – | -7.9 kcal/mol | 1780 ± 740 nM | -9.9 kcal/mol | 64 ± 6 nM | 27.8 | 0.1 ± 0.3 kcal/mol | –1.3 ± 0.1 kcal/mol | – |
| COc1cccc2sc(NC(=O)c3ccccc3)nc12 [Compound 26] | – | – | – | -9.6 kcal/mol | – | -8.1 kcal/mol | 1330 nM and 1300 nM | 0.1 | – | – | efficacy in cAMP assay at A1AR (human A1AR [6]): antagonists; also recorded: Antagonism; efficacy in cAMP assay at A2AAR (human A2AAR [7]): antagonists; also recorded: Antagonism; A2AAR selectivity (human A2AAR [3]; A2AAR versus A1AR): 13 fold; Ki (human A2AAR [3]; radioligand binding, Table S5): 106 nM; ΔΔG Experimental A2AAR (human A2AAR [3]; reference compound 10): –0.8 ± 0.1 kcal/mol; ΔΔG Experimental A1AR (human A1AR [4]; reference compound 10): 0.4 ± 0.3 kcal/mol |
